# Read-outs that look alike come from different tables or passages of the source.
# How the values were obtained:
# human topoisomerase II = human topoisomerase II (Homo sapiens, UniProt P11388); experiment: DNA Topo II inhibition (kDNA decatenation) assay; assay type: biochemical
# Procedure: The ATP-dependent decatenation of kinetoplast DNA (kDNA) obtained from Crithidia fasciculata, which consists of a network of numerous minicircles (2.3 Kb) and some maxicircles, was used to measure topoisomerase II inhibition. Reactions took place in 20 μL and comprised topoisomerase II, 200–300 ng of kDNA, and 120 mM KCl with 50 mM Tris-HCl, pH 8, 10 mM MgCl2, 0.5 mM ATP, and 0.5 mM dithiothreitol. In preliminary tests, the quantity of topoisomerase II (5 units) was changed to decatenate almost 100% of the kDNA under these assay circumstances. […] The products in the reaction mixture were separated by a 1% agarose gel after the reaction was complete and then could be seen after being stained with ethidium bromide (0.2 μg/mL). The gels were run at 100 V for about 40 min and visualised under UV transillumination.
# This assay is based on the fact that human Topo II can decatenate interlinked double-stranded DNA molecules.
# [1] = In vitro cytotoxicity on WI-38 human cell line (MTT); assay type: cell-based; conditions: WI-38 normal fibroblast cells, WI-38 normal fibroblasts
# Procedure: Cell line cells were provided from the American Type Culture Collection cultured in DMEM (Invitrogen/Life Technologies) with 10% FBS (Hyclone), 1% penicillin-streptomycin, and 10 μg/mL insulin (Sigma). The remainder of the chemicals and reagents were provided by either Sigma or Invitrogen. Prior to the MTT assay, plated cells were incubated for 24 h in a 96-well plate with 100 μl of the test substance per well and 100 μl of complete growth medium (cell density 1.2–1.8 × 10,000 cells/well). Cultures were transferred from the incubator and placed in a sterile work area or laminar flow hood. Then, 10% of the culture medium volume of reconstituted MTT was added, and the cultures were incubated for an additional 2 h. After that, cultures were taken out of the incubator, and the formazan crystals were dissolved using MTT solubilising solution [M-8910] in an amount equal to the volume of the original culture medium. The absorbance at 570 nm was measured. Finally, the IC50 of the test compound compared to the reference was calculated using the GraphPad Prism software.
# A549 cells [2] = experiment: Cell cycle analysis by flow cytometry; assay type: cell-based, human; conditions: A549, 4c at IC50 (2 nM), 24 h (b61 also says 48 h)
# Procedure: Briefly, a six-well plate containing lung cancer (A549) cells was seeded with 1 × 10^5 cells per well and then incubated for 24 h. 2 nM of compound 4c or 0.1% DMSO was applied to the cells for 24 h. Following that, cells were gathered and fixed in ice-cold 70% ethanol at 4 °C for 12 h. The cells were then rinsed with cold Phosphate Buffer Saline (PBS) and incubated for 30 min at 37 °C in 0.5 ml of PBS after the ethanol was removed. Propidium iodide was used to stain the cells for 30 min in the dark. DNA content was determined using a flow cytometer.
# The cell cycle is required for cell division and replication. The cell cycle was divided into four distinct phases: G1 phase ([…]), S phase (synthesis), G2 phase (interphase), and M phase (mitosis). The G1 phase, also known as the post-mitotic pre-synthesis phase, is distinguished by direct cell division. DNA replication identifies the S phase. The G2 phase, premitotic, or post-synthetic phase, which can be considered the actual division, is when the cell prepares to split into two cells. Finally, the doubled DNA organised in chromosomes is separated during the M- or mitosis-phase division. Many anticancer drugs cause apoptosis, cell cycle arrest, or a combination of both as part of their cytotoxic action.
# A549 cells [3] = experiment: Annexin V-FITC apoptosis assay; assay type: cell-based, human
# Procedure: Each well of a 6-well plate received 1 × 10^5 conc. lung cancer (A549) cells that were then incubated for 24 h. The cells were then exposed for 24 h to 2 nM compound 4c or (0.1%) DMSO before being harvested, washed with PBS, and stained for 15 min at room temperature in the dark with annexin V-FITC and PI in binding buffer ([…] at pH 7.4). The flow cytometer was then used to examine the cells.
# Apoptotic cell death is a method by which an anticancer agent destroys tumour cells. Therefore, compound 4c was additionally estimated through an Annexin V-FITC experiment utilising A549 cells to evaluate if the cytotoxic action of the novel compound is related to necrosis or apoptosis.
# [4] = tested on: MCF7 breast cancer cell line; experiment: MTT cytotoxicity assay, MCF7; conditions: SI = IC50 normal cell (WI-38)/IC50 cancer cell (MCF7)
# Procedure: (§1) The MTT test was used to evaluate the inhibitory effects of the substances on cell proliferation in the aforementioned cell lines. This colorimetric assay targets the mitochondrial succinate dehydrogenase of living cells to change yellow tetrazolium bromide (MTT) to a purple formazan derivative. […] Then, the cells were incubated for 24 h and exposed to various chemical concentrations. 20 μL of a 5 mg/mL MTT solution was applied after a 24-h drug treatment period and incubated for 4 h. To dissolve the produced purple formazan, each well receives 100 μL of dimethyl sulfoxide (DMSO). […] The formula for calculating the relative percentage of cell viability was (A570 of treated samples/A570 of the untreated sample) × 100.
# The newly prepared compounds were screened against three cancer cell lines: namely, breast cancer cell line MCF7, non-small cell lung cancer (NSCLC) cell line A549, and renal cancer cell line A498, using the MTT colorimetric assay.
# [5] = tested on: A549 non-small cell lung cancer (NSCLC) cell line; experiment: MTT cytotoxicity assay, A549
# Procedure: as §1
# [6] = tested on: A498 renal cell carcinoma cell line; experiment: MTT cytotoxicity assay, A498
# Procedure: as §1
# human topoisomerase II, sequence (P11388 whole entry): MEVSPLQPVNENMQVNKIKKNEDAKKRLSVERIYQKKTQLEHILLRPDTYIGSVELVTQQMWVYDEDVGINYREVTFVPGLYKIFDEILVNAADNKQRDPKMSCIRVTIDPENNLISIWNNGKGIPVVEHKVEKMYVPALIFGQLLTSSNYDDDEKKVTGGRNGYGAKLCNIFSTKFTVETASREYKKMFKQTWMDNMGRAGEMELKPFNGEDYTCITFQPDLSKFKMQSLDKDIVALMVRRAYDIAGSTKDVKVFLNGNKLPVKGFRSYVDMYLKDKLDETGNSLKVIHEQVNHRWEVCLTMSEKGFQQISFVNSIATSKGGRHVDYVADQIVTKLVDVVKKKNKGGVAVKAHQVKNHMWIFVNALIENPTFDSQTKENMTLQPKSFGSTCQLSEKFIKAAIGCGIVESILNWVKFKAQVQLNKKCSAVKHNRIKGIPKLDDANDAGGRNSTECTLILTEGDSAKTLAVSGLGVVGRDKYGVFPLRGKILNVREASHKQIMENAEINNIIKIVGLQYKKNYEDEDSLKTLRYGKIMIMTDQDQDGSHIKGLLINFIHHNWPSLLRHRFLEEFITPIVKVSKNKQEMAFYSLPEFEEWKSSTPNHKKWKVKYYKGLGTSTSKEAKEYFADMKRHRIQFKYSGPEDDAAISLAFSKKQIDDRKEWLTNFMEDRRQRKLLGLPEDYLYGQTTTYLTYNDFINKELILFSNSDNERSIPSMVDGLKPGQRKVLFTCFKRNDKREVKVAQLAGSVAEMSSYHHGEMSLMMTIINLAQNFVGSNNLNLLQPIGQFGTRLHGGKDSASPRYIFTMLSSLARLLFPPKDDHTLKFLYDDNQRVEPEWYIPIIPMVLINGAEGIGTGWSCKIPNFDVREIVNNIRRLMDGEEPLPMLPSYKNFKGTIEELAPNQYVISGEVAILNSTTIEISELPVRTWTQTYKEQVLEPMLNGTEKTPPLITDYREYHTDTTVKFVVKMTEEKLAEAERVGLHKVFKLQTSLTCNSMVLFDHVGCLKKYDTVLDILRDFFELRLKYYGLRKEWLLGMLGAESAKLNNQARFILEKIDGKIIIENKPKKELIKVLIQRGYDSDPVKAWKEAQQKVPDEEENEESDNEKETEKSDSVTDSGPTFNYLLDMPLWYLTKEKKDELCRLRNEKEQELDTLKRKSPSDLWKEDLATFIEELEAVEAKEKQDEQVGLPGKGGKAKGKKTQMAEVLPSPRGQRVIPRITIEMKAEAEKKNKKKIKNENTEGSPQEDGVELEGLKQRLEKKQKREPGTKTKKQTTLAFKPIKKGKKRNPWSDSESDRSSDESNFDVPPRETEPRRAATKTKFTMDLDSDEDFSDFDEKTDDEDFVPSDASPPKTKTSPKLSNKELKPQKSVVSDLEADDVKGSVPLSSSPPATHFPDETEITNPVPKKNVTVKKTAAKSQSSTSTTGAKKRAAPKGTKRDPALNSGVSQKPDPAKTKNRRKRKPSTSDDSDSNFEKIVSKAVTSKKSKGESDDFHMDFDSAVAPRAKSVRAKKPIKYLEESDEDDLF
compound,measurement,setting,value
"CCOC(=O)C1=C(C)N=C2SC=C(NC(=O)c3c(Cl)cc(Cl)cc3Cl)N2C1c1ccc(OC)cc1OC (stereo not drawn) [Compound 4c, Ethyl 5–(2,4-dimethoxyphenyl)-7-methyl-3–(2,4,6-trichlorobenzamido)-5H-thiazolo[3,2-a]pyrimidine-6-carboxylate]",%inh TOPO II,human topoisomerase II; conc 0.1 (μM),44%
same,%inh TOPO II,human topoisomerase II; conc 1 (μM),60%
same,%inh TOPO II,human topoisomerase II; conc 10 (μM),79%
same,%inh TOPO II,human topoisomerase II; conc 100 (μM),92%
same,IC50,"human topoisomerase II; kDNA decatenation, four concentrations 0.1-100 µM, mean ± SD of two independent assays",230 ± 10 nM
same,Topo II potency relative to Doxorubicin (IC50 ratio),human topoisomerase II; versus IC50 of Doxorubicin,3.6 fold
same,Topo II potency relative to Etoposide (IC50 ratio),human topoisomerase II; versus IC50 of Etoposide,1.4 fold
same,IC50 at 24 h,[1],15500 ± 840 nM
same,%G2/M,A549 cells [2]; control 13.97,4.04%
same,%S,A549 cells [2]; control 29.64,26.89%
same,%G0–G1,A549 cells [2]; control 56.39,69.07%
same,elevation in the total apoptosis versus control,A549 cells [3]; A549,26.47 fold
same,increase in early apoptotic cells versus control,A549 cells [3]; A549,61.92 fold
same,increase in late apoptotic cells versus control,A549 cells [3]; A549,97 fold
same,increase in the percentage of necrosis versus control,A549 cells [3]; A549,2.5 fold
same,late apoptotic cells,"A549 cells [3]; A549, 4c at IC50 (2 nM), control 0.13%",12.61%
same,early apoptotic cells,"A549 cells [3]; A549, 4c at IC50 (2 nM), control […]",24.15%
same,Selectivity index (SI) MCF7,[4],7770
same,IC50,"[5]; Homo sapiens, A549, 24 h, read-out: Cytotoxicity IC50 A549± SD, MTT, A549, 24 h treatment, mean ± SD of two independent assays",2 nM
same,Selectivity index (SI) A549,[5]; SI = IC50 normal cell (WI-38)/IC50 cancer cell (A549),7770
same,IC50,"[5]; read-out: Cytotoxicity IC50 A549± SD, MTT, A549, 24 h treatment, mean ± SD of two independent assays",1 nM
same,IC50,"[6]; Homo sapiens, A498, 24 h, read-out: Cytotoxicity IC50 A498± SD, MTT, A498, 24 h treatment, mean ± SD of two independent assays",1 nM
same,Selectivity index (SI) A498,[6]; SI = IC50 normal cell (WI-38)/IC50 cancer cell (A498),15540
same,IC50,"[6]; read-out: Cytotoxicity IC50 A498± SD, MTT, A498, 24 h treatment, mean ± SD of two independent assays",2 nM

# From publication PMC9930781, “Design, synthesis, docking, and anticancer evaluations of new thiazolo[3,2-a] pyrimidines as topoisomerase II inhibitors” (Journal of Enzyme Inhibition and Medicinal Chemistry, 2023)
